Source: patent publication EP3866610B1, “CHOCOLATE MATRIX COMPRISING CURCUMIN AND RESVERATROL” (priority 2018, dated 2020)
In brackets after ≈: the same amount, converted by molar mass. Read-outs that look alike come from different tables or passages of the source.

What was measured:
[1] = assay type: physicochemical
Protocol: (§1) The SSF was prepared following the instructions included in the article published by Minekus et al. in 2014 in the journal Food & Function (Minekus M, Alminger M, Alvito P, et al. A standardized static in vitro digestion method suitable for food - an international consensus. Food & Funct. 2014. 5:1113-1124). In detail, the SSF was prepared by mixing the following saline solutions: • KCI at the concentration of 15.1 mmol/l, • KH2PO4 at the concentration of 3.7 mmol/l, • NaHCO3 at the concentration of 13.6 mmol/l, • MgCl2(H2O)6 at the concentration of 0.15 mmol/l, and • (NH4)2CO3 at the concentration of 0.06 mmol/l. […]
(§2) Each sample as illustrated below was analysed in triplicate and the concentration of curcumin and resveratrol was calculated on the basis of two calibration curves previously constructed using the curcumin and resveratrol supplied as reference substance and dissolved in 96% ethanol. For processing the calibration curves, the curcumin and resveratrol solutions (prepared by dissolving an exactly weighed quantity of substance in 96% ethanol) were prepared and subjected to analysis in a concentration range, from 0.5 to 200 µg/ml . […]

physchem [2] = assay type: physicochemical; details: maltitol 1.35 g, curcumin 50 mg, resveratrol 50 mg, extraction with 6 ml SSF at room temperature
Protocol: as §1, §2

physchem [3] = assay type: physicochemical; details: dmem medium, mean of technical triplicates, read-out: Concentration in DMEM medium
Protocol: (§3) The chromatography analyses were performed using a HPLC-DAD Agilent 1100 system (Agilent, Waldbronn, Germany), comprising a quaternary pump, self-sampler with thermostat equipped with a 100 µl injection loop, column thermostat, DAD Agilent 1100 detector (Agilent, Waldbronn, Germany). For the system control and data analysis the Chemstation software was used. The separation of the compounds was obtained with a Gemini C18 110A analytical column (150 mm × 2 mm; particle diameter 5 µm), connected to a suitable pre-column, both purchased from Phenomenex, Torrance, CA, USA. […]
as §2
Subsequently, the cell pellet was re-suspended in 24 ml of DMEM medium and the sample was centrifuged at 6000 rpm for 10 minutes to remove the insoluble part. […] The quantities of the compounds added to the medium and were selected on the basis of the first experimental phase. […]

HaCat cells = assay type: in vitro ADME, Human; details: HaCat cells incubated 120 minutes at 37°C, mean of technical triplicates
Protocol: as §3, §2
The cells were detached mechanically using a scraper in 2 ml of PBS and transferred into a 15 ml Falcon test tube for being centrifuged at 1500 rpm for 5 minutes. […] The results obtained, reported in Table 4, were expressed as a mean of the technical triplicates. […]

SMILES | solubility in SSF [1] | Concentration (physchem [2]; SAMPLE 2: 2.8528 g dark chocolate, ethanol 99.9 µL) [µg/mL] | solubility (physchem [2]; simulated salivary fluid, SAMPLE 1: 2.8528 g dark chocolate, ethanol 199.8 µL, read-out: Concentration) [µg/mL] | solubility (physchem [3]; no matrix, 167 mg curcumin and 167 mg resveratrol in 20 ml DMEM, filtered) [µg/mL] | solubility (physchem [3]; with chocolate matrix: 200 mg curcumin, 200 mg resveratrol, 5.4 g maltitol, 12 g dark chocolate, 799.2 µl ethanol, hexane-defatted, re-suspended in 24 ml DMEM) [µg/mL] | Concentration in cell pellet (absorption by the cells) (HaCat cells; no matrix, pellet re-suspended in 500 µl 96° ethanol) [µg/mL] | Concentration in cell pellet (absorption by the cells) (HaCat cells; with chocolate matrix, maltitol and ethanol) [µg/mL]
COc1cc(/C=C/C(=O)CC(=O)/C=C/c2ccc(O)c(OC)c2)ccc1O [Curcumin] | substantial insolubility |  |  |  |  |  | 
Oc1ccc(/C=C/c2cc(O)cc(O)c2)cc1 [Resveratrol, 3,5,4'-trihydroxy-trans-stilbene] |  | 82.47 | 156 (≈ 683 µM) | 31.8 (≈ 139 µM) | 125 (≈ 547 µM) | 0 | 3.66
